Measured values from US20160338966A1, “Multimicroparticulate pharmaceutical forms foe oral administration” (FLAMEL IRELAND LIMITED, priority 2006, published 2016).

Assay: behavior of agents D in water and in ethanol/water solution 40/60 v/v
Type: physicochemical
From the text: Different compounds D are introduced into ajar containing either water (on the left in the Figures) or an ethanol/water solution in a ratio of 40/60 v/v (right jar in the Figures).

Substance	solubility in water and in ethanol/water	solubilization rate in water versus water/ethanol mixture
guar gum	soluble in water but not in the water/ethanol mixture	
hydroxypropyl methyl cellulose [hypromellose]		higher in water than in the water/ethanol mixture
